Experimental findings from patent US20240024488A1, “COMPOUNDS AND USES THEREOF” (Foghorn Therapeutics Inc., priority 2020, published 2024) are described below.

For experiment [1], the target named is T1, HiBit-BRG1 fusion protein (Homo sapiens, UniProt P51532).
T1 construct: expressed in transfected cells
The experiment in a line: HiBiT-BRG1 cell-based degradation assay (Nano-Glo HiBiT Lytic Detection, 24 h). As to conditions: HeLa cell line expressing HiBit-BRG1 and LgBit; for Dmax: read-out: BRG1 HiBit Degradation Maximum (%); for DC50: read-out: BRMG1 HiBit Degradation IC50. The procedure, abridged: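 HeLa cells stably expressing HiBit-BRG1 plus LgBit; compound exposure 24 h; Nano-Glo HiBiT lytic luminescence; % degradation vs DMSO (0%) and 2 μM standard BRM/BRG1 degrader (100%).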

Another experiment addresses T2, HiBit-BRM fusion protein (Homo sapiens, UniProt P51531).
T2 construct: expressed in transfected cells
In words: HiBiT-BRM cell-based degradation assay (Nano-Glo HiBiT Lytic Detection, 24 h). As to conditions: HeLa cell line expressing HiBiT-BRM; for DC50: read-out: BRM HiBit Degradation IC50. The procedure, abridged: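 Percent BRM loss was derived from HiBiT luminescence relative to DMSO-treated cells and cells given 2 μM of a known BRM/BRG1 degrader. Treatment lasted 24 h in HiBiT-BRM HeLa cells, with a top final concentration of 30 μM.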

T2 sequence (P51531 whole entry, the tested form may be a part): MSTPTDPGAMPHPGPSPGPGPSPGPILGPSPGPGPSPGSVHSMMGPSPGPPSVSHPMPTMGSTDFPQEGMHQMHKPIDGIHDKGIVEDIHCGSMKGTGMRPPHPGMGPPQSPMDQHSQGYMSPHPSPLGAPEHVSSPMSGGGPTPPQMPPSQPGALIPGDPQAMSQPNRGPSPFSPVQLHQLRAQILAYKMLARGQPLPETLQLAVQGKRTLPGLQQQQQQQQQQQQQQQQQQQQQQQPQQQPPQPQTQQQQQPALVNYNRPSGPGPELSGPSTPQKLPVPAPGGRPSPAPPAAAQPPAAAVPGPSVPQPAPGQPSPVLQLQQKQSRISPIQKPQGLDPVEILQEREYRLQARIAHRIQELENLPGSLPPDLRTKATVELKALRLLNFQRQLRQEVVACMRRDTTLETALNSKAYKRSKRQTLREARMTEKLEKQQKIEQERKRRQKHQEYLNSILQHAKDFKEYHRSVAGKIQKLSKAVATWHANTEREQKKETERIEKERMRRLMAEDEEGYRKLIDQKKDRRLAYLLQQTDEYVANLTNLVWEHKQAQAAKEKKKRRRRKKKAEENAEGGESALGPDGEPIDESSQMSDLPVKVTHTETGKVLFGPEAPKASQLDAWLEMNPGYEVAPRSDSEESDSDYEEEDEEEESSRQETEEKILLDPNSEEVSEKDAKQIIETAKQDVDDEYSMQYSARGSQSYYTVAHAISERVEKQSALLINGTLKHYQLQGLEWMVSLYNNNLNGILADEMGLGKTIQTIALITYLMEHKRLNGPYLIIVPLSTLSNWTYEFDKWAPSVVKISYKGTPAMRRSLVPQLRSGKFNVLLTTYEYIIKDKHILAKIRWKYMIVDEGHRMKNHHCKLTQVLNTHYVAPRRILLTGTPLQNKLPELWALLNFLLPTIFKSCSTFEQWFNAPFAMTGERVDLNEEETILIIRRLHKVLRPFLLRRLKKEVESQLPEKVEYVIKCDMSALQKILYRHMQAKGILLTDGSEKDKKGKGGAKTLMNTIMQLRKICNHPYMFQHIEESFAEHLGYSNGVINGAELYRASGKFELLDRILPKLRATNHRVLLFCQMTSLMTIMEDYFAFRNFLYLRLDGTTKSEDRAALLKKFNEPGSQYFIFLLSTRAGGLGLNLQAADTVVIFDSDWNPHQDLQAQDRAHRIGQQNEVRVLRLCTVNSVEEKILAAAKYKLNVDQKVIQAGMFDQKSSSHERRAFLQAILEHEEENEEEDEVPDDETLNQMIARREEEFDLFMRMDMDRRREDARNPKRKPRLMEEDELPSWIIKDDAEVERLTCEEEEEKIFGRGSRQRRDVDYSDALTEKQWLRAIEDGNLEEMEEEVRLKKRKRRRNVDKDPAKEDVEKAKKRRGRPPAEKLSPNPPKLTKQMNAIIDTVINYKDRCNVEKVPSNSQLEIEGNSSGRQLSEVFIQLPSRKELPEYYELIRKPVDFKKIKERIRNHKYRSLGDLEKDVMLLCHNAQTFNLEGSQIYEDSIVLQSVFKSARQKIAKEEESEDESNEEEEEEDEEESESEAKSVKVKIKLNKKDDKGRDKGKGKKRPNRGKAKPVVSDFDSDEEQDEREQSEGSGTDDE
T1 sequence (P51532 whole entry, the tested form may be a part): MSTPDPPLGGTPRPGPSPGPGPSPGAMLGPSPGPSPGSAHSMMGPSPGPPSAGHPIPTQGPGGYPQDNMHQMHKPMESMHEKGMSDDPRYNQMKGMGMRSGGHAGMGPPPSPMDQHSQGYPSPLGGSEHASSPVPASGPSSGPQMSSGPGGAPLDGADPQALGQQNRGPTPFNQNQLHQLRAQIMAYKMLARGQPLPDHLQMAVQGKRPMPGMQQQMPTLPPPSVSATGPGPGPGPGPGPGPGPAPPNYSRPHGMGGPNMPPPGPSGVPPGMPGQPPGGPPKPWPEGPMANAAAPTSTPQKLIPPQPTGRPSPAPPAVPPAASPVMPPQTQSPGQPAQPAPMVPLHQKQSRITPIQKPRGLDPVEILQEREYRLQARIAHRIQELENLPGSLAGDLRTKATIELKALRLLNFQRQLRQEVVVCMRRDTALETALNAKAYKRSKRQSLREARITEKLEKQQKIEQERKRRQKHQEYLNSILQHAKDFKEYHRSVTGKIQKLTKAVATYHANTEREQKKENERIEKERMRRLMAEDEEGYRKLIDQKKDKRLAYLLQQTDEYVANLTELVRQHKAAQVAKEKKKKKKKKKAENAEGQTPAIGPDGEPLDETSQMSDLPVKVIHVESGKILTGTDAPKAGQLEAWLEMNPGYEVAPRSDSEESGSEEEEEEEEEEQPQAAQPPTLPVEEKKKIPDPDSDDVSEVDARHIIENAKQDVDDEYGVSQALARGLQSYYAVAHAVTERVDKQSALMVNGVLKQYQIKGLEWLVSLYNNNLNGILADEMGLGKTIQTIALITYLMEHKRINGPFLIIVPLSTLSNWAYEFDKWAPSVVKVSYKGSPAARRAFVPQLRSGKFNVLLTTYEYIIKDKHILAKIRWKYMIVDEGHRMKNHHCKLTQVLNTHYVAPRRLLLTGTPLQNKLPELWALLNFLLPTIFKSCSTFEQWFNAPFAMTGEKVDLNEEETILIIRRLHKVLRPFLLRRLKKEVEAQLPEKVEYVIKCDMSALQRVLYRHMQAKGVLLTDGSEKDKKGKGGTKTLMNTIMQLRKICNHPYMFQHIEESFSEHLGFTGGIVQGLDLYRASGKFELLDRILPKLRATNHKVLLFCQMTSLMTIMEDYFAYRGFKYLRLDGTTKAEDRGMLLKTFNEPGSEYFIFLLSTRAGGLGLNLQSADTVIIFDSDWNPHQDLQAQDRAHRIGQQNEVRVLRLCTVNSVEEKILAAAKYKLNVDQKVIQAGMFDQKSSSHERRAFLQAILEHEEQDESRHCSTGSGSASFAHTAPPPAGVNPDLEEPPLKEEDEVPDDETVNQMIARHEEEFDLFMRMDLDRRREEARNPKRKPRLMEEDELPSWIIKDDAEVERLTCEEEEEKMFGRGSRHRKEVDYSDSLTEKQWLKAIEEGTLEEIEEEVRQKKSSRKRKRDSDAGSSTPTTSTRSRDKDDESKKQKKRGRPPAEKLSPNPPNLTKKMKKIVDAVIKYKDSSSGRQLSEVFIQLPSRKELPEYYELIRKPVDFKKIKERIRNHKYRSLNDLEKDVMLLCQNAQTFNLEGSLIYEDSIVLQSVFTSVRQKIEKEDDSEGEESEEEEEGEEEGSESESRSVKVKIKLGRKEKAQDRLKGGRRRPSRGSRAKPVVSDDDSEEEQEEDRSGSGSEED

Regarding `Cc1ncsc1-c1ccc([C@H](C)NC(=O)[C@@H]2C[C@@H](O)CN2C(=O)[C@H](c2cc(C3CN(C(=O)[C@H]4CCc5[nH]c6nnc(-c7ccccc7O)cc6c5C4)C3)no2)C(C)C)cc1` (single isomer, unassigned) [Compound 153], in experiment [1], the Dmax is under 50%. Moreover, the “BRM HiBit Degradation Maximum (%)” value on HiBit-BRM fusion protein is “C (“C” indicates maximum degradation < 50%)”.
Turning to `Cc1ncsc1-c1ccc([C@H](C)NC(=O)[C@@H]2C[C@@H](O)CN2C(=O)[C@@H](c2cc(N3CCN(C(=O)[C@H]4CCc5[nH]c6nnc(-c7ccccc7O)cc6c5C4)CC3)no2)C(C)C)cc1` (single isomer, unassigned) [Compound 188], in experiment [1], the Dmax was over 75% and the DC50 is over 100 nM. Moreover, on HiBit-BRM fusion protein, the “BRM HiBit Degradation Maximum (%)” value is reported as “A (“A” indicates maximum degradation ≥ 75%)” and the DC50 is over 100 nM.
Consider `Cc1ncsc1-c1ccc([C@H](C)NC(=O)[C@@H]2C[C@@H](O)CN2C(=O)[C@@H](c2cc(OCC(=O)N3CCc4[nH]c5nnc(-c6ccccc6O)cc5c4C3)no2)C(C)C)cc1` (racemic) [Compound 194, (2S,4R)-4-hydroxy-1-((R)-2-(3-(2-(3-(2-hydroxyphenyl)-5,7,8,9-tetrahydro-6H-pyrido[3′,4′:4,5]pyrrolo[2,3-c]pyridazin-6-yl)-2-oxoethoxy)isoxazol-5-yl)-3-methylbutanoyl)-N-((S)-1-(4-(4-methylthiazol-5-yl)phenyl)ethyl)pyrrolidine-2-carboxamide], for which the Dmax in experiment [1] is under 50%. In addition, the “BRM HiBit Degradation Maximum (%)” value at HiBit-BRM fusion protein is “C (“C” indicates maximum degradation < 50%)”.
As for `Cc1ncsc1-c1ccc([C@H](C)NC(=O)[C@@H]2C[C@@H](O)CN2C(=O)[C@@H](c2cc(OCCN3CC(Cc4cc5cc(-c6ccccc6O)nnc5[nH]4)C3)no2)C(C)C)cc1` (racemic) [Compound 294, (2S,4R)-4-hydroxy-1-((R)-2-(3-(2-(3-((3-(2-hydroxyphenyl)-7H-pyrrolo[2,3-c]pyridazin-6-yl)methyl)azetidin-1-yl)ethoxy)isoxazol-5-yl)-3-methylbutanoyl)-N-((S)-1-(4-(4-methylthiazol-5-yl)phenyl)ethyl)pyrrolidine-2-carboxamide], in experiment [1], the Dmax is under 50%. Also, on HiBit-BRM fusion protein, the “BRM HiBit Degradation Maximum (%)” value was “A (“A” indicates maximum degradation ≥ 75%)” and the DC50 is over 100 nM.
With `Cc1ncsc1-c1ccc(CNC(=O)[C@@H]2C[C@@H](O)CN2C(=O)[C@@H](NC(=O)CCCCCCCCC(=O)N2CC(c3c[nH]c4nnc(-c5ccccc5O)cc34)C2)C(C)(C)C)cc1` [Compound 43, (2S,4R)-4-hydroxy-1-((S)-2-(10-(3-(3-(2-hydroxyphenyl)-7H-pyrrolo[2,3-c]pyridazin-5-yl)azetidin-1-yl)-10-oxodecanamido)-3,3-dimethylbutanoyl)-N-(4-(4-methylthiazol-5-yl)benzyl)pyrrolidine-2-carboxamide], in experiment [1], the Dmax was under 50%. The “BRM HiBit Degradation Maximum (%)” value on HiBit-BRM fusion protein was “C (“C” indicates maximum degradation < 50%)”.
As for `Cc1ncsc1-c1ccc(CNC(=O)[C@@H]2C[C@@H](O)CN2C(=O)[C@@H](NC(=O)CCCC(=O)N[C@H]2CCc3[nH]c4nnc(-c5ccccc5O)cc4c3C2)C(C)(C)C)cc1` (single isomer, unassigned) [Compound 184], the Dmax in experiment [1] is under 50%. At HiBit-BRM fusion protein, the “BRM HiBit Degradation Maximum (%)” value was “B (“B” indicates maximum degradation ≥ 50%)” and the DC50 is over 1000 nM.
For `Cc1ncsc1-c1ccc([C@H](C)NC(=O)[C@@H]2C[C@@H](O)CN2C(=O)[C@@H](c2cc(N(C)CCN3CC(c4cc5cc(-c6ccccc6O)nnc5[nH]4)C3)no2)C(C)C)cc1` (racemic) [Compound 256], the Dmax in experiment [1] is under 50%. Further, on HiBit-BRM fusion protein, the “BRM HiBit Degradation Maximum (%)” value was “A (“A” indicates maximum degradation ≥ 75%)” and the DC50 was over 100 nM.
For the compound `Cc1ncsc1-c1ccc([C@H](C)NC(=O)[C@@H]2C[C@@H](O)CN2C(=O)[C@@H](c2cc(OCCN3CC(c4[nH]c5nnc(-c6ccccc6O)cc5c4C4CC4)C3)no2)C(C)C)cc1` (racemic) [Compound 164, (2S,4R)-1-((R)-2-(3-(2-(3-(5-cyclopropyl-3-(2-hydroxyphenyl)-7H-pyrrolo[2,3-c]pyridazin-6-yl)azetidin-1-yl)ethoxy)isoxazol-5-yl)-3-methylbutanoyl)-4-hydroxy-N-((S)-1-(4-(4-methylthiazol-5-yl)phenyl)ethyl)pyrrolidine-2-carboxamide], in experiment [1], the Dmax was over 75% and the DC50 was over 100 nM. On HiBit-BRM fusion protein, the “BRM HiBit Degradation Maximum (%)” value was “A (“A” indicates maximum degradation ≥ 75%)” and the DC50 is over 10 nM.
In the case of `O=C1CCC(N2C(=O)c3cccc(OCCCCCCCC(=O)N4CC(c5cc6cc(-c7ccccc7O)nnc6[nH]5)C4)c3C2=O)C(=O)N1` (stereo not shown) [Compound 30, 2-(2,6-dioxopiperidin-3-yl)-4-((8-(3-(3-(2-hydroxyphenyl)-7H-pyrrolo[2,3-c]pyridazin-6-yl)azetidin-1-yl)-8-oxooctyl)oxy)isoindoline-1,3-dione], the Dmax in experiment [1] is under 50%. Also, the “BRM HiBit Degradation Maximum (%)” value at HiBit-BRM fusion protein is listed as “C (“C” indicates maximum degradation < 50%)”.
With `O=C1CCC(N2C(=O)c3cccc(OCCCC(=O)N4CC(c5cc6cc(-c7ccccc7O)nnc6[nH]5)C4)c3C2=O)C(=O)N1` (stereo not shown) [Compound 8, 2-(2,6-dioxopiperidin-3-yl)-4-(4-(3-(3-(2-hydroxyphenyl)-7H-pyrrolo[2,3-c]pyridazin-6-yl)azetidin-1-yl)-4-oxobutoxy)isoindoline-1,3-dione], in experiment [1], the Dmax is over 75% and the DC50 was over 1000 nM. At HiBit-BRM fusion protein, the “BRM HiBit Degradation Maximum (%)” value is “A (“A” indicates maximum degradation ≥ 75%)” and the DC50 is over 1000 nM.
Turning to `Cc1ncsc1-c1ccc([C@H](C)NC(=O)[C@@H]2C[C@@H](O)CN2C(=O)[C@@H](c2cc(OCCN3C[C@@H]4[C@H](C3)[C@H]4c3cc4cc(-c5cc(F)ccc5O)nnc4[nH]3)no2)C(C)C)cc1` (racemic) [Compound 224, (2S,4R)-1-((R)-2-(3-(2-((1R,5S,6R)-6-(3-(5-fluoro-2-hydroxyphenyl)-7H-pyrrolo[2,3-c]pyridazin-6-yl)-3-azabicyclo[3.1.0]hexan-3-yl)ethoxy)isoxazol-5-yl)-3-methylbutanoyl)-4-hydroxy-N-((S)-1-(4-(4-methylthiazol-5-yl)phenyl)ethyl)pyrrolidine-2-carboxamide], in experiment [1], the Dmax was over 50% and the DC50 was over 1000 nM. Moreover, on HiBit-BRM fusion protein, the “BRM HiBit Degradation Maximum (%)” value was “A (“A” indicates maximum degradation ≥ 75%)” and the DC50 was over 10 nM.
Turning to `Cc1ncsc1-c1ccc([C@H](C)NC(=O)[C@@H]2C[C@@H](O)CN2C(=O)[C@H](c2cc(N(C)CCN3CCc4[nH]c5nnc(-c6ccccc6O)cc5c4C3)no2)C(C)C)cc1` (racemic) [Compound 149, (2S,4R)-4-hydroxy-1-((S)-2-(3-((2-(3-(2-hydroxyphenyl)-5,7,8,9-tetrahydro-6H-pyrido[3′,4′:4,5]pyrrolo[2,3-c]pyridazin-6-yl)ethyl)(methyl)amino)isoxazol-5-yl)-3-methylbutanoyl)-N-((S)-1-(4-(4-methylthiazol-5-yl)phenyl)ethyl)pyrrolidine-2-carboxamide], the Dmax in experiment [1] is under 50%. Moreover, at HiBit-BRM fusion protein, the “BRM HiBit Degradation Maximum (%)” value is listed as “C (“C” indicates maximum degradation < 50%)”.
With `Cc1ncsc1-c1ccc([C@H](C)NC(=O)[C@@H]2C[C@@H](O)CN2C(=O)[C@@H](c2cc(OCCN3C[C@@H]4[C@H](C3)[C@H]4c3[nH]c4nnc(-c5cc(F)cc(F)c5O)cc4c3C)no2)C(C)C)cc1` (racemic) [Compound 125, (2S,4R)-1-((R)-2-(3-(2-((1R,5S,6R)-6-(3-(3,5-difluoro-2-hydroxyphenyl)-5-methyl-7H-pyrrolo[2,3-c]pyridazin-6-yl)-3-azabicyclo[3.1.0]hexan-3-yl)ethoxy)isoxazol-5-yl)-3-methylbutanoyl)-4-hydroxy-N-((S)-1-(4-(4-methylthiazol-5-yl)phenyl)ethyl)pyrrolidine-2-carboxamide], the Dmax in experiment [1] is under 50%. In addition, on HiBit-BRM fusion protein, the “BRM HiBit Degradation Maximum (%)” value is reported as “A (“A” indicates maximum degradation ≥ 75%)” and the DC50 is over 10 nM.
Consider `Cc1ncsc1-c1ccc([C@H](C)NC(=O)[C@@H]2C[C@@H](O)CN2C(=O)[C@@H](c2cc(OCCN3CC(Oc4c[nH]c5nnc(-c6ccccc6O)cc45)C3)no2)C(C)C)cc1` (racemic) [Compound 139, (2S,4R)-4-hydroxy-1-[(2R)-2-{3-[2-(3-{[3-(2-hydroxyphenyl)-7H-pyrrolo[2,3-c]pyridazin-5-yl]oxy}azetidin-1-yl)ethoxy]-1,2-oxazol-5-yl}-3-methylbutanoyl]-N-[(1S)-1-[4-(4-methyl-1,3-thiazol-5-yl)phenyl]ethyl]pyrrolidine-2-carboxamide], for which the Dmax in experiment [1] was under 50%. Also, on HiBit-BRM fusion protein, the “BRM HiBit Degradation Maximum (%)” value is reported as “B (“B” indicates maximum degradation ≥ 50%)” and the DC50 is over 100 nM.
Regarding `O=C1CCC(N2C(=O)c3ccc(OCCOCCOCCC(=O)N4CC(c5cc6cc(-c7ccccc7O)nnc6[nH]5)C4)cc3C2=O)C(=O)N1` (stereo not shown) [Compound 24, 2-(2,6-dioxopiperidin-3-yl)-5-(2-(2-(3-(3-(3-(2-hydroxyphenyl)-7H-pyrrolo[2,3-c]pyridazin-6-yl)azetidin-1-yl)-3-oxopropoxy)ethoxy)ethoxy)isoindoline-1,3-dione], in experiment [1], the Dmax was under 50%. In addition, the “BRM HiBit Degradation Maximum (%)” value on HiBit-BRM fusion protein is “C (“C” indicates maximum degradation < 50%)”.
